Data taken from the supplement of paper PMC6045584.
± gives the standard deviation of the averaged measurements.

Tests used:
PLX-4720 = compound: CCCS(=O)(=O)Nc1ccc(F)c(C(=O)c2c[nH]c3ncc(Cl)cc23)c1F [PLX-4720]; experiment: surviving fraction relative to DMSO-only wells; higher = less growth inhibition; settings: exposure time: 5 days
How it was run: (§1)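 After seeding at 250–500 cells per well in 384-well plates and a 24-hour wait, log-phase tumour cell lines were exposed without interruption for five days to inhibitors at 0.5, 1, 5, 10, 50, 100, 500 and 1000 nM. CellTiter-Glo luminescence was recorded after 10 minutes at room temperature. Viability is reported as surviving fraction, the luminescence normalised to the median of DMSO-only wells.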

AZD4547 = compound: COc1cc(CCc2cc(NC(=O)c3ccc(N4CC(C)NC(C)C4)cc3)n[nH]2)cc(OC)c1 [AZD4547]; experiment: as above; settings: exposure time: 5 days
How it was run: as §1

Row | Test System | surviving fraction (PLX-4720; 0.5 nM) | surviving fraction (PLX-4720; 1 nM) | surviving fraction (PLX-4720; 5 nM) | surviving fraction (PLX-4720; 10 nM) | surviving fraction (PLX-4720; 50 nM) | surviving fraction (PLX-4720; 100 nM) | surviving fraction (PLX-4720; 500 nM) | surviving fraction (PLX-4720; 1000 nM) | surviving fraction (AZD4547; 0.5 nM) | surviving fraction (AZD4547; 1 nM) | surviving fraction (AZD4547; 5 nM) | surviving fraction (AZD4547; 10 nM) | surviving fraction (AZD4547; 50 nM) | surviving fraction (AZD4547; 100 nM) | surviving fraction (AZD4547; 500 nM) | surviving fraction (AZD4547; 1000 nM)
1 | H23 LUNG | 0.873 ± 0.037 | 0.943 ± 0.057 | 0.93 ± 0.055 | 0.968 ± 0.068 | 0.971 ± 0.028 | 1.06 ± 0.018 | 1.06 ± 0.044 | 1.17 ± 0.014 | 0.965 ± 0.059 | 1.06 ± 0.052 | 1.03 ± 0.055 | 1.04 ± 0.02 | 1.01 ± 0.037 | 1.05 ± 0.028 | 0.979 ± 0.075 | 0.964 ± 0.066
2 | MDAMB231 BREAST | 0.936 ± 0.018 | 0.964 ± 0.017 | 0.969 ± 0.024 | 0.9755 ± 0.0065 | 1.01 ± 0.031 | 1.03 ± 0.012 | 1.01 ± 0.011 | 1.03 ± 0.038 | 0.973 ± 0.018 | 1.02 ± 0.025 | 1.009 ± 0.0064 | 1.02 ± 0.033 | 1.02 ± 0.019 | 1.06 ± 0.032 | 1.06 ± 0.035 | 1.06 ± 0.028
3 | HU09 BONE | 0.863 ± 0.032 | 0.959 ± 0.13 | 0.873 ± 0.013 | 0.941 ± 0.071 | 1.01 ± 0.07 | 0.946 ± 0.14 | 0.898 ± 0.11 | 1 ± 0.11 | 0.983 ± 0.077 | 0.982 ± 0.16 | 1.03 ± 0.089 | 1.07 ± 0.061 | 0.797 ± 0.066 | 0.856 ± 0.026 | 0.624 ± 0.062 | 0.419 ± 0.031
4 | MCF7 BREAST | 0.746 ± 0.042 | 0.873 ± 0.059 | 0.831 ± 0.033 | 0.83 ± 0.035 | 0.83 ± 0.014 | 0.915 ± 0.022 | 0.851 ± 0.021 | 0.899 ± 0.048 | 0.925 ± 0.062 | 0.918 ± 0.038 | 0.948 ± 0.074 | 0.931 ± 0.036 | 1 ± 0.069 | 0.9181 ± 0.0017 | 0.921 ± 0.066 | 0.924 ± 0.063
5 | SAOS2 BONE | 0.824 ± 0.019 | 0.866 ± 0.013 | 0.891 ± 0.0052 | 0.831 ± 0.049 | 1.08 ± 0.038 | 1.12 ± 0.077 | 1.108 ± 0.0092 | 1.13 ± 0.095 | 1.046 ± 0.0017 | 1.077 ± 0.0081 | 1.14 ± 0.031 | 1.17 ± 0.085 | 1.16 ± 0.054 | 1.14 ± 0.051 | 0.92467 ± 0.00058 | 0.649 ± 0.023
6 | COLO320DM LARGE INTESTINE | 0.376 ± 0.022 | 0.996 ± 0.12 | 0.921 ± 0.08 | 1.07 ± 0.11 | 0.462 ± 0.075 | 1.07 ± 0.086 | 1.03 ± 0.088 | 0.979 ± 0.079 | 1.08 ± 0.027 | 1.11 ± 0.049 | 0.994 ± 0.036 | 0.997 ± 0.21 | 1.1 ± 0.076 | 1.05 ± 0.1 | 1.08 ± 0.078 | 1.1 ± 0.2
7 | HOSMNG BONE | 0.959 ± 0.026 | 0.962 ± 0.025 | 1 ± 0.061 | 0.985 ± 0.041 | 0.991 ± 0.16 | 1.04 ± 0.079 | 1 ± 0.12 | 1.03 ± 0.092 | 1.01 ± 0.088 | 0.996 ± 0.12 | 1.02 ± 0.1 | 1.03 ± 0.035 | 0.964 ± 0.12 | 0.9967 ± 0.0029 | 0.945 ± 0.087 | 1.04 ± 0.097
8 | CASKI CERVIX | 0.795 ± 0.091 | 0.809 ± 0.029 | 0.847 ± 0.045 | 0.848 ± 0.033 | 0.97 ± 0.02 | 1.02 ± 0.033 | 0.998 ± 0.045 | 1.02 ± 0.058 | 0.927 ± 0.055 | 0.951 ± 0.033 | 1.01 ± 0.014 | 1.02 ± 0.073 | 0.961 ± 0.053 | 1.03 ± 0.048 | 0.805 ± 0.02 | 0.548 ± 0.019
9 | HOS BONE | 0.92 ± 0.012 | 0.928 ± 0.014 | 0.935 ± 0.017 | 0.964 ± 0.0053 | 0.992 ± 0.015 | 0.995 ± 0.0027 | 0.96 ± 0.0078 | 1.01 ± 0.019 | 1 ± 0.027 | 1.04 ± 0.011 | 1.04 ± 0.037 | 1.1 ± 0.042 | 1 ± 0.019 | 0.987 ± 0.021 | 0.9247 ± 0.0092 | 0.802 ± 0.039
10 | HS578T BREAST | 0.925 ± 0.054 | 0.912 ± 0.021 | 0.908 ± 0.1 | 0.809 ± 0.16 | 0.978 ± 0.13 | 0.92 ± 0.055 | 0.943 ± 0.058 | 0.789 ± 0.11 | 0.986 ± 0.061 | 1.05 ± 0.06 | 1.04 ± 0.025 | 1.01 ± 0.04 | 0.966 ± 0.056 | 0.94 ± 0.036 | 0.871 ± 0.03 | 0.911 ± 0.039
